This note sets out measurements from US20050228180A1, “Alpha, omega-dicarboximide derivatives as useful uro-selective a1a adrenoceptor blockers” (priority 2002, published 2005).

The target in the assay is T1, α1B adrenoceptor (Rattus norvegicus, UniProt P15823).
T1 construct: from tissue; host or cells: rat liver membranes
T1 sequence (P15823 1-515): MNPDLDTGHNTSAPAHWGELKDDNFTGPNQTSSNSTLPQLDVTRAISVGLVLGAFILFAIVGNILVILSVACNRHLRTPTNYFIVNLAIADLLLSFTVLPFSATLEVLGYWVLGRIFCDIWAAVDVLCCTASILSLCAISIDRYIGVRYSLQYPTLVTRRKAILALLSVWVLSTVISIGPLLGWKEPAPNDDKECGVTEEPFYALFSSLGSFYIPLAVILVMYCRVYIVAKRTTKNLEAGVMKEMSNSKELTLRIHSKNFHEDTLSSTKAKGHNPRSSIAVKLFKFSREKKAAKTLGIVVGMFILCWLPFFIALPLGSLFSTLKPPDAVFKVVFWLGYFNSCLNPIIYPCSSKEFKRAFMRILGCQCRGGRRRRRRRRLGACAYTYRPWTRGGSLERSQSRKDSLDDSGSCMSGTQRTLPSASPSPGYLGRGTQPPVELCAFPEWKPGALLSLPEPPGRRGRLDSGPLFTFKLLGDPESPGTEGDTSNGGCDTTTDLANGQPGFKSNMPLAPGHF
Description: Radioligand binding, [3H] prazosin displacement, rat liver membranes. The note with it: read-out: Affinity (Ki) α1B (Rat Liver). Put shortly: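 Rat membranes (submaxillary for α1A, liver for α1B; 150-250 μg protein) incubated with [3H]prazosin and compound in Tris 50 mM/EDTA 5 mM pH 7.4, 1 h at 24-25° C. Nonspecific binding with 300 nM prazosin; filtration, counting; Ki via Cheng–Prusoff.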

Structures can show the parent of a compound that is named as a salt.

In the case of `CC(C)Oc1ccccc1N1CCN(CCCN2C(=O)C3CC(O)C(O)CC3C2=O)CC1` (stereo not shown) [Compound No. 23, 2-[3-{4-(2-Isopropoxyphenyl)piperazin-1-yl}propyl]-5,6-dihydroxy-3a,4,5,6,7,7a, hexahydro-1H-isoindole-1,3(2H)-dione-hydrochloride], the Ki was 127 nM.
